Measured values from patent EP4477653A1 (Perha Pharmaceuticals, priority 2023, dated 2024).

target: T1, human recombinant A3AR (expressed in HEK-293 cells) (Homo sapiens, UniProt P0DMS8); experiment: Adenosine receptors antagonism assay (Eurofins), [125I]-AB-MECA radioligand competition; assay type: binding; conditions: [125I]-AB-MECA 0.15 nM, r.t., 120 min; IC50 from dose-response curves; read-out: Potency Class A3AR
T1 construct: host or cells: HEK-293 cells
T1 sequence (P0DMS8 1-318): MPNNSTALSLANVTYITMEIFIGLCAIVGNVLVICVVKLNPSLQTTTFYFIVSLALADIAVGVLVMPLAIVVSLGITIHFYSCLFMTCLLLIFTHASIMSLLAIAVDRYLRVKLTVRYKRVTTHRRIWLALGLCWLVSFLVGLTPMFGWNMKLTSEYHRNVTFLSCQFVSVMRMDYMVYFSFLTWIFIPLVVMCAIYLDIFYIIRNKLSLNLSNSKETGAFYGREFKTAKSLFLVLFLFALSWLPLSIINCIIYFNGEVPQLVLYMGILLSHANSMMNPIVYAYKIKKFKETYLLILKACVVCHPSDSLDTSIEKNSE

Row | SMILES | IC50 [µM]
1 | CCC(CC)Nc1cc(NCc2ccccn2)c2nnc(C(C)C)n2n1 [compound 51, N6-(1-ethylpropyl)-3-isopropyl-N8-(2-pyridylmethyl)-[1,2,4]triazolo[4,3-b]pyridazine-6,8-diamine] | 0.001 to 0.01
2 | COCCCNc1cc(NCc2ccccc2)c2nnc(C(F)(F)F)n2n1 [compound 36, N8-benzyl-N6-(3-methoxypropyl)-3-(trifluoromethyl)-[1,2,4]triazolo[4,3-b]pyridazine-6,8-diamine] | 0.01 to 0.1
3 | CCC(CC)Nc1cc(NCc2cccc(O)c2)c2nnc(C(C)C)n2n1 [compound 41, 3-[[[6-(1-ethylpropylamino)-3-isopropyl-[1,2,4]triazolo[4,3-b]pyridazin-8-yl]amino]methyl]phenol] | 0.001 to 0.01
4 | CNC(=O)CCNc1cc(NCc2ccccc2)c2nnc(C(C)C)n2n1 [compound 26, 3-[[8-(benzylamino)-3-isopropyl-[1,2,4]triazolo[4,3-b]pyridazin-6-yl]amino]-N-methyl-propanamide] | 0.01 to 0.1
5 | CC(C)c1nnc2c(NCc3ccccc3O)cc(N[C@@H]3CCCOC3)nn12 [compound 43, 2-[[[3-isopropyl-6-[[(3R)-tetrahydropyran-3-yl]amino]-[1,2,4]triazolo[4,3-b]pyridazin-8-yl]amino]methyl]phenol] | 0.01 to 0.1
6 | CCC(CC)Nc1cc(NCc2ccccc2)c2nnc(C(C)C)n2n1 [compound 18, N8-benzyl-N6-(1-ethylpropyl)-3-isopropyl-[1,2,4]triazolo[4,3-b]pyridazine-6,8-diamine] | 0.001 to 0.01
7 | COCCCNc1cc(NCc2ccccc2)c2nnc(C)n2n1 [compound 32, N8-benzyl-N6-(3-methoxypropyl)-3-methyl-[1,2,4]triazolo[4,3-b]pyridazine-6,8-diamine] | 0.1 to 1
8 | CC(C)c1nnc2c(NCc3ccccn3)cc(NC3CC4(CCC4)C3)nn12 [compound 53, 3-isopropyl-N8-(2-pyridylmethyl)-N6-spiro[3.3]heptan-2-yl-[1,2,4]triazolo[4,3-b]pyridazine-6,8-diamine] | 0.001 to 0.01
9 | CC(C)c1nnc2c(NCc3ccccn3)cc(NCc3ccccc3)nn12 [compound 56, N6-benzyl-3-isopropyl-N8-(2-pyridylmethyl)-[1,2,4]triazolo[4,3-b]pyridazine-6,8-diamine] | 0.001 to 0.01
10 | CC(C)c1nnc2c(NCc3ccccc3)cc(N[C@H](CO)[C@@H](C)O)nn12 (stereo in doubt) [compound 5, (2R,3R)-2-[[8-(benzylamino)-3-isopropyl-[1,2,4]triazolo[4,3-b]pyridazin-6-yl]amino]butane-1,3-diol] | 0.1 to 1
11 | CCC(CC)Nc1cc(NCc2ccc(N)cc2)c2nnc(C(C)C)n2n1 [compound 75, N8-[(4-aminophenyl)methyl]-N6-(1-ethylpropyl)-3-isopropyl-[1,2,4]triazolo[4,3-b]pyridazine-6,8-diamine] | 0.001 to 0.01
12 | CC(C)c1nnc2c(NCc3ccccc3)cc(NCCCCCO)nn12 [compound 15, 5-[[8-(benzylamino)-3-isopropyl-[1,2,4]triazolo[4,3-b]pyridazin-6-yl]amino]pentan-1-ol] | 0.1 to 1
13 | CC[C@H](CO)Nc1cc(NCc2ccccc2O)c2nnc(C(C)C)n2n1 [compound 38, 2-[[[6-[[(1R)-1-(hydroxymethyl)propyl]amino]-3-isopropyl-[1,2,4]triazolo[4,3-b]pyridazin-8-yl]amino]methyl]phenol] | 0.001 to 0.01

The next lines start with the values.

Row | IC50 [µM] | SMILES
14 | 0.01 to 0.1 | CSCCNc1cc(NCc2ccccc2)c2nnc(C(C)C)n2n1 [compound 143, N8-benzyl-3-isopropyl-N6-(2-methylsulfanylethyl)-[1,2,4]triazolo[4,3-b]pyridazine-6,8-diamine]
15 | 0.1 to 1 | CC(C)c1nnc2c(NCc3ccccc3)cc(NCc3ccncc3)nn12 [compound 133, N8-benzyl-3-isopropyl-N6-(4-pyridylmethyl)-[1,2,4]triazolo[4,3-b]pyridazine-6,8-diamine]
16 | 0.1 to 1 | CC(C)c1nnc2c(NCc3ccccc3)cc(NC34CC5CC(CC(C5)C3)C4)nn12 [compound 137, N6-(1-adamantyl)-N8-benzyl-3-isopropyl-[1,2,4]triazolo[4,3-b]pyridazine-6,8-diamine]
17 | 0.001 to 0.01 | CCC(CC)Nc1cc(NCCc2ccccc2)c2nnc(C(C)C)n2n1 [compound 82, N6-(1-ethylpropyl)-3-isopropyl-N8-(2-phenylethyl)-[1,2,4]triazolo[4,3-b]pyridazine-6,8-diamine]
18 | 0.01 to 0.1 | CCC(CC)Nc1cc(Nc2ncccn2)c2nnc(C(C)C)n2n1 [compound 152, 3-isopropyl-N6-(pentan-3-yl)-N8-(pyrimidin-2-yl)-[1,2,4]triazolo[4,3-b]pyridazine-6,8-diamine]
19 | 0.001 to 0.01 | CCC(CC)Nc1cc(NCc2cccnn2)c2nnc(C(C)C)n2n1 [compound 95, N6-(1-ethylpropyl)-3-isopropyl-N8-(pyridazin-3-ylmethyl)-[1,2,4]triazolo[4,3-b]pyridazine-6,8-diamine]
20 | < 0.001 | CCC(CC)Nc1cc(Nc2cc(OC)cnn2)c2nnc(C(C)C)n2n1 [compound 162, 3-isopropyl-N8-(5-methoxypyridazin-3-yl)-N6-(pentan-3-yl)-[1,2,4]triazolo[4,3-b]pyridazine-6,8-diamine]
21 | 0.1 to 1 | CCC(CC)Nc1cc(N2Cc3ccccc3C2)c2nnc(C(C)C)n2n1 [compound 79, N-(1-ethylpropyl)-8-isoindolin-2-yl-3-isopropyl-[1,2,4]triazolo[4,3-b]pyridazin-6-amine]
22 | < 0.001 | CC[C@@H](CO)Nc1cc(Nc2cccnn2)c2nnc(C3CC3)n2n1 [compound 182, (S)-2-((3-cyclopropyl-8-(pyridazin-3-ylamino)-[1,2,4]triazolo[4,3-b]pyridazin-6-yl)amino)butan-1-ol]
23 | 0.001 to 0.01 | CCC(CC)Nc1cc(NCCc2ccccc2)c2nnc(C3CC3)n2n1 [compound 217, 3-cyclopropyl-N6-(pentan-3-yl)-N8-phenethyl-[1,2,4]triazolo[4,3-b]pyridazine-6,8-diamine]
24 | 0.1 to 1 | COCCCNc1cc(NCCCOC)c2nnc(-c3ccccc3)n2n1 [compound 109, N6,N8-bis(3-methoxypropyl)-3-phenyl-[1,2,4]triazolo[4,3-b]pyridazine-6,8-diamine]
25 | 0.1 to 1 | CNc1cc(NCc2ccc(Br)cc2)c2nnc(C(C)C)n2n1 [compound 116, N8-[(4-bromophenyl)methyl]-3-isopropyl-N6-methyl-[1,2,4]triazolo[4,3-b]pyridazine-6,8-diamine]
26 | 0.001 to 0.01 | CC(C)Nc1cc(NCc2ccccn2)c2nnc(C3CC3)n2n1 [compound 192, 3-cyclopropyl-N6-isopropyl-N8-(pyridin-2-ylmethyl)-[1,2,4]triazolo[4,3-b]pyridazine-6,8-diamine]
27 | 0.001 to 0.01 | c1ccc(CNc2cc(NCC3CCC3)nn3c(C4CC4)nnc23)nc1 [compound 204, N6-(cyclobutylmethyl)-3-cyclopropyl-N8-(pyridin-2-ylmethyl)-[1,2,4]triazolo[4,3-b]pyridazine-6,8-diamine]
28 | < 0.001 | CCC(CC)CNc1cc(NCCc2ccccn2)c2nnc(C(C)C)n2n1 [compound 164, N6-(2-ethylbutyl)-3-isopropyl-N8-[2-(2-pyridyl)ethyl]-[1,2,4]triazolo[4,3-b]pyridazine-6,8-diamine]
29 | 0.001 to 0.01 | c1ccc(CNc2cc(NC3CCC3)nn3c(C4CC4)nnc23)nc1 [compound 198, N6-cyclobutyl-3-cyclopropyl-N8-(pyridin-2-ylmethyl)-[1,2,4]triazolo[4,3-b]pyridazine-6,8-diamine]
30 | 0.1 to 1 | c1ccc(CNc2cc(N[C@@H]3CCOC3)nn3c(C4CC4)nnc23)nc1 [compound 213, (R)-3-cyclopropyl-N8-(pyridin-2-ylmethyl)-N6-(tetrahydrofuran-3-yl)-[1,2,4]triazolo[4,3-b]pyridazine-6,8-diamine]
31 | 0.001 to 0.01 | CCC(CC)Nc1cc(NCCCc2cccnc2)c2nnc(C(C)C)n2n1 [compound 90, N6-(1-ethylpropyl)-3-isopropyl-N8-[3-(3-pyridyl)propyl]-[1,2,4]triazolo[4,3-b]pyridazine-6,8-diamine]
32 | < 0.001 | CCC(CC)Nc1cc(Nc2ccccc2)c2nnc(C3CC3)n2n1 [compound 171, 3-cyclopropyl-N6-(1-ethylpropyl)-N8-phenyl-[1,2,4]triazolo[4,3-b]pyridazine-6,8-diamine]
33 | 0.001 to 0.01 | CCC(CC)Nc1cc(NCc2cccc(N)c2)c2nnc(C(C)C)n2n1 [compound 76, N8-[(3-aminophenyl)methyl]-N6-(1-ethylpropyl)-3-isopropyl-[1,2,4]triazolo[4,3-b]pyridazine-6,8-diamine]
34 | < 0.001 | CC[C@H](CO)Nc1cc(Nc2cccnn2)c2nnc(C3CC3)n2n1 [compound 181, (R)-2-((3-cyclopropyl-8-(pyridazin-3-ylamino)-[1,2,4]triazolo[4,3-b]pyridazin-6-yl)amino)butan-1-ol]

same assay, conditions: read-out: Potency Class A3AR; [125I]-AB-MECA 0.15 nM, r.t., 120 min; IC50 from dose-response curves

Row | SMILES | IC50 [µM]
35 | CC(C)c1nnc2c(NCc3ccccc3)cc(NC3CCCCC3O)nn12 (racemic) [compound 134, racemic trans-2-[[8-(benzylamino)-3-isopropyl-[1,2,4]triazolo[4,3-b]pyridazin-6-yl]amino]cyclohexanol] | 0.01 to 0.1
36 | CC[C@H](CO)Nc1cc(NCc2ccccn2)c2nnc(C(C)C)n2n1 [compound 169] | 0.01 to 0.1

system: not listed separately; experiment: LogD (HPLC); assay type: physicochemical; conditions: by HPLC; Table 2

Row | SMILES | chromatographic logD
37 | CC(C)c1nnc2c(NCc3ccccc3)cc(NC3CCCCC3O)nn12 (racemic) [compound 134, racemic trans-2-[[8-(benzylamino)-3-isopropyl-[1,2,4]triazolo[4,3-b]pyridazin-6-yl]amino]cyclohexanol] | 2.73
38 | CC(C)c1nnc2c(NCc3ccccc3)cc(N[C@H]3CC[C@H](O)CC3)nn12 [(135), racemic trans-4-[[8-(benzylamino)-3-isopropyl-[1,2,4]triazolo[4,3-b]pyridazin-6-yl]amino]cyclohexanol] | 2.22

Results, then the molecule that gave them:

Row | chromatographic logD | SMILES
39 | 3.07 | CSCCNc1cc(NCc2ccccc2)c2nnc(C(C)C)n2n1 [compound 143, N8-benzyl-3-isopropyl-N6-(2-methylsulfanylethyl)-[1,2,4]triazolo[4,3-b]pyridazine-6,8-diamine]
40 | 2.36 | CC(C)c1nnc2c(NCc3ccccc3)cc(NCc3ccncc3)nn12 [compound 133, N8-benzyl-3-isopropyl-N6-(4-pyridylmethyl)-[1,2,4]triazolo[4,3-b]pyridazine-6,8-diamine]
41 | 5.02 | CC(C)c1nnc2c(NCc3ccccc3)cc(NC34CC5CC(CC(C5)C3)C4)nn12 [compound 137, N6-(1-adamantyl)-N8-benzyl-3-isopropyl-[1,2,4]triazolo[4,3-b]pyridazine-6,8-diamine]
